Assay results from PubChem BioAssay (NCI).
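These data come from cells grown in 96-well plates and exposed to compound for 48 hours at five concentrations. GI50: concentration for 50% inhibition of growth. TGI: total growth inhibition.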

How the values were obtained:
Assay in all cases: NCI tumour cell line growth inhibition, 48 h
SNB-75 CNS = tested on: SNB-75 CNS
BT-549 breast = tested on: BT-549 breast
ACHN renal = tested on: ACHN renal
HL-60(TB) leukemia = tested on: HL-60(TB) leukemia
NCI-H226 lung = tested on: NCI-H226 lung
IGROV1 ovarian = tested on: IGROV1 ovarian
HS 578T breast = tested on: HS 578T breast
DU-145 prostate = tested on: DU-145 prostate
SR leukemia = tested on: SR leukemia
HOP-92 NSCLC = tested on: HOP-92 NSCLC

SMILES	GI50 (SNB-75 CNS)	TGI (SNB-75 CNS)	GI50 (BT-549 breast)	TGI (BT-549 breast)	GI50 (ACHN renal)	TGI (ACHN renal)	GI50 (HL-60(TB) leukemia)	TGI (HL-60(TB) leukemia)	GI50 (NCI-H226 lung)	TGI (NCI-H226 lung)	GI50 (IGROV1 ovarian)	TGI (IGROV1 ovarian)	GI50 (HS 578T breast)	TGI (HS 578T breast)	GI50 (DU-145 prostate)	TGI (DU-145 prostate)	TGI (SR leukemia)	GI50 (HOP-92 NSCLC)	TGI (HOP-92 NSCLC)	GI50 (SR leukemia)
C[C@@]1(C(=O)O)CCC[C@]2(C)C1CC[C@@]13C[C@@](O)(CC[C@]12O)[C@@]1(CO1)C3 (some centres undefined)	> 100 µM	> 100 µM	> 100 µM	> 100 µM	> 100 µM	> 100 µM	> 100 µM	> 100 µM	> 100 µM	> 100 µM	> 100 µM	> 100 µM	> 100 µM	> 100 µM	> 100 µM	> 100 µM	> 100 µM	–	–	–
CC1=CC(C)=NN=C(N)N1S(=O)(=O)c1cc(C)c(Cl)cc1SCc1ccccc1	23.5 µM	> 100 µM	17.8 µM	> 100 µM	24.4 µM	> 100 µM	6.75 µM	> 100 µM	58.5 µM	> 100 µM	46 µM	> 100 µM	> 100 µM	> 100 µM	73.4 µM	> 100 µM	> 100 µM	3.82 µM	38.8 µM	16.5 µM
COC1C(O)CC(OC2CC(OC3CC(O[C@@H]4C(=O)c5c(cc6cc(OC7CC(OC8CC(O)C(O)C(C)O8)C(O)C(C)O7)c(C)c(O)c6c5O)CC4[C@H](OC)C(=O)O)OC(C)C3O)OC(C)C2O)OC1C (some centres undefined)	1.03 µM	7.89 µM	1.8 µM	31.8 µM	1.09 µM	> 33.3 µM	5.53 µM	> 33.3 µM	1.15 µM	9.72 µM	1.76 µM	> 33.3 µM	1.93 µM	> 33.3 µM	1.96 µM	> 33.3 µM	> 33.3 µM	4.4 µM	> 33.3 µM	0.922 µM
Cn1c(=O)c(Oc2ccc(F)cc2F)cc2cnc(NC(C)(C)CO)nc21	> 25 µM	> 25 µM	> 21.4 µM	> 25 µM	> 25 µM	> 25 µM	> 25 µM	> 25 µM	> 25 µM	> 25 µM	> 25 µM	> 25 µM	> 25 µM	> 25 µM	> 25 µM	> 25 µM	> 25 µM	7.44 µM	> 25 µM	> 25 µM
COc1cc(Oc2c(C)c(Cl)c(OC)c(Cl)c2OC)c2c(c1Cl)COC2=O	–	> 100 µM	–	> 100 µM	–	62.9 µM	–	31.6 µM	–	> 100 µM	–	> 100 µM	–	> 100 µM	–	> 100 µM	83.5 µM	–	> 100 µM	–
O=C1C(=C(C(F)(F)Cl)C(F)(F)Cl)C2CCC1C2 (centres undefined)	–	> 10 µM	–	4 µM	–	3.32 µM	–	> 3.16 µM	–	> 9.06 µM	–	3.62 µM	–	> 10 µM	–	> 10 µM	> 3.34 µM	–	6.42 µM	–
CN(C)CCN1C(=O)c2cccc3cc([N+](=O)[O-])cc(c23)C1=O	–	1.05 µM	–	7.62 µM	–	–	–	> 45.3 µM	–	0.436 µM	–	4.49 µM	–	4.65 µM	–	> 100 µM	97 µM	–	1.12 µM	–
C=C1CC2(CC(c3ccccc3Cl)OC(c3ccccc3Cl)C2)OC1=O (centres undefined)	–	8.41 µM	–	4.59 µM	–	9.82 µM	–	12.1 µM	–	21.3 µM	–	4.62 µM	–	4.71 µM	–	14.4 µM	14.2 µM	–	4.65 µM	–
COc1ccc(C=Nc2c(C(=O)Nc3cccc(Cl)c3C)sc3nc(C)c(C(=O)/C=C/c4ccc(OC)cc4)cc23)cc1	0.191 µM	1.88 µM	0.787 µM	> 38.5 µM	0.425 µM	> 50 µM	1.27 µM	> 22 µM	0.621 µM	11.7 µM	1.32 µM	> 50 µM	0.458 µM	7.67 µM	0.638 µM	14.6 µM	> 50 µM	0.59 µM	7.12 µM	0.421 µM
CC1CCN(Cc2ccc(NC(=O)c3cc4ccc5cccnc5c4[nH]3)cc2)CC1	10.8 µM	27.8 µM	10.8 µM	24.3 µM	5.47 µM	23.1 µM	3.16 µM	13.1 µM	23.5 µM	73.4 µM	6.15 µM	54.1 µM	4.09 µM	28.3 µM	8.79 µM	> 100 µM	6.65 µM	4.76 µM	20.5 µM	2.29 µM
COC(=O)C1=C(O)[C@H](C(=O)OC)C2(O)C(C(=O)OC)[C@H](c3ccc(OC(=O)C(C)c4ccccc4)cc3)C[C@@H]1[C@@H]2C(=O)OC (some centres undefined)	16.6 µM	> 50 µM	19.3 µM	> 50 µM	19.2 µM	> 50 µM	43.3 µM	> 50 µM	–	–	26.7 µM	> 50 µM	10.3 µM	34.1 µM	20.6 µM	> 50 µM	> 50 µM	> 50 µM	> 50 µM	29.9 µM
O=C(Nc1ccc(Cc2ccccc2)cc1)Nc1nn(C(=O)Nc2ccc(Cc3ccccc3)cc2)c2ccccc12	33.8 µM	> 100 µM	> 100 µM	> 100 µM	> 100 µM	> 100 µM	> 100 µM	> 100 µM	> 100 µM	> 100 µM	> 100 µM	> 100 µM	74.2 µM	> 100 µM	80 µM	> 100 µM	35.8 µM	18 µM	> 100 µM	16.3 µM
CCCCC(CCCCCC(CCCC)NCc1ccc2c(c1)OCO2)NCc1ccc2c(c1)OCO2 (centres undefined)	1.46 µM	2.78 µM	1.48 µM	3.06 µM	1.17 µM	2.4 µM	0.458 µM	1.21 µM	1.91 µM	4.02 µM	0.887 µM	2.22 µM	0.977 µM	2.92 µM	0.803 µM	2.04 µM	0.495 µM	0.569 µM	2.08 µM	0.215 µM
COc1cc2c3cc1Oc1c(OC)c(OC)cc4c1C(=NCC4)Cc1ccc(cc1)Oc1cc(ccc1O)C[C@H]3N(C)CC2	–	40.2 µM	–	24.9 µM	–	83.5 µM	–	96.5 µM	–	61.2 µM	–	94.4 µM	–	63.7 µM	–	> 100 µM	31.2 µM	–	29.1 µM	–
